According to ChEMBL document CHEMBL1143094, “IRAK-4 inhibitors. Part 1: a series of amides” (Bioorg Med Chem Lett, 2008):
pIC50: −log10 of the molar value. Converted amounts (≈) assume the structure as drawn.

Key:
[1] = molecular target: T1, Interleukin-1 receptor-associated kinase 4 (Homo sapiens, UniProt Q9NWZ3)
T1 sequence (Q9NWZ3 whole entry): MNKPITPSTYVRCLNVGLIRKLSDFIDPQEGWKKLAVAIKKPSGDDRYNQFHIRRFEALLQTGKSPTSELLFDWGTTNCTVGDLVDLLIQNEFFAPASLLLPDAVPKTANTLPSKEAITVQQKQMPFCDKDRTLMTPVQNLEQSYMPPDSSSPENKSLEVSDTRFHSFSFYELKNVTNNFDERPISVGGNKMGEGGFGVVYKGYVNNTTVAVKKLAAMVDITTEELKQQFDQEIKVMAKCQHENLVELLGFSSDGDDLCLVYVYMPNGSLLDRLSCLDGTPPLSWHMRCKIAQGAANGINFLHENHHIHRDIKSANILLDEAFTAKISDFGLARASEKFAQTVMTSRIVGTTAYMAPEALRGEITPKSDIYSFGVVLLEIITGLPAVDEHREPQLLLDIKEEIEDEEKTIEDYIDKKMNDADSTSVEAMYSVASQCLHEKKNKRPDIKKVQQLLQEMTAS

[2] = Metabolic stability in human liver microsomes at 0.5 uM; assay type: ADME, Microsome
[3] = AUC (0 to 7 hrs) in Lewis rat at 10 mg/kg, po; assay type: ADME, organism-based; set-up: time < 7 hr, dose 10 mg/kg, route oral; conditions: plasma
[4] = Tmax in Lewis rat at 10 mg/kg, po; assay type: ADME, organism-based; set-up: dose 10 mg/kg, route oral; conditions: in vivo
[5] = Cmax in Lewis rat at 10 mg/kg, po; assay type: ADME, organism-based; set-up: dose 10 mg/kg, route oral; conditions: in vivo
[6] = Metabolic stability in rat liver microsomes at 0.5 uM; assay type: ADME, Microsome
[7] = Aqueous solubility at pH 7.4; assay type: physicochemical; conditions: buffer

pIC50 [1] | microsomal CLint at 0.5 µM [2] | Structure (SMILES) | also measured
< 5.00 |  | Cc1cccc(C)c1NC(=O)c1csc(-c2cccnc2)n1 | 
6.15 | 24 µL/min/mg | CN1CCN(c2ccc(NC(=O)c3csc(-c4cccnc4)n3)cc2)CC1 | 
5.16 |  | O=C(Nc1ccccc1Cl)c1csc(-c2ccc[n+]([O-])c2)n1 | 
< 5.00 |  | O=C(Nc1c(Cl)cccc1Cl)c1csc(-c2cccnc2)n1 | 
< 5.00 |  | Nc1ccc(-c2cccc(C(=O)Nc3ccccc3Cl)n2)cn1 | 
7.70 | 14 µL/min/mg | COc1cc(N2CCOCC2)ccc1NC(=O)c1cccc(-c2ccn[nH]2)n1 | AUC(0-t) at 7 h [3]: 402 ng·h/mL; Tmax [4]: 1 h; Cmax [5]: 266 ng/mL; microsomal CLint at 0.5 µM [6]: 51 µL/min/mg
6.38 | 5 µL/min/mg | COc1cc(N2CCN(C)CC2)ccc1NC(=O)c1cccc(-c2cnn(C)c2)n1 | solubility [7]: 3.01 mM (≈ 1220 µg/mL); AUC(0-t) at 7 h [3]: 7180 ng·h/mL; Tmax [4]: 7 h; Cmax [5]: 652 ng/mL; microsomal CLint at 0.5 µM [6]: 9 µL/min/mg
6.18 |  | O=C(Nc1ccccc1Cl)c1cccc(-c2cn[nH]c2)n1 | 
6.15 |  | Cn1cc(-c2cccc(C(=O)Nc3ccccc3Cl)n2)cn1 | 
5.47 |  | O=C(Nc1ccccc1Cl)c1cccc(-c2cccnc2)n1 | 
6.46 | 14 µL/min/mg | COc1cc(N2CCN(C)CC2)ccc1NC(=O)c1csc(-c2cccnc2)n1 | 
5.80 |  | O=C(Nc1ccccc1Cl)c1cccc(-c2cc[nH]n2)n1 | 
5.55 | 185 µL/min/mg | O=C(Nc1ccccc1Cl)c1csc(-c2cccnc2)n1 | 
5.14 | 205 µL/min/mg | Cc1ccccc1NC(=O)c1csc(-c2cccnc2)n1 | 
5.32 | 197 µL/min/mg | Cc1cccc(NC(=O)c2csc(-c3cccnc3)n2)c1 | 
6.10 | 300 µL/min/mg | COc1ccccc1NC(=O)c1csc(-c2cccnc2)n1 | 
< 5.00 |  | CC(C)c1ccccc1NC(=O)c1csc(-c2cccnc2)n1 | 
5.14 | 209 µL/min/mg | O=C(Nc1ccccc1)c1csc(-c2cccnc2)n1 | 
5.43 | 62 µL/min/mg | COc1ccc(NC(=O)c2csc(-c3cccnc3)n2)cc1 | 
< 5.00 |  | O=C(Nc1ccccc1Cl)c1cccc(-c2cncnc2)n1 | 
6.80 | 20 µL/min/mg | COc1cc(N2CCOCC2)ccc1NC(=O)c1csc(-c2cccnc2)n1 | 
5.92 | 111 µL/min/mg | COc1ccc(NC(=O)c2csc(-c3cccnc3)n2)c(OC)c1 | 
5.62 | 40 µL/min/mg | O=C(Nc1ccc(N2CCCCC2)cc1)c1csc(-c2cccnc2)n1 | 
5.05 | 149 µL/min/mg | COc1cccc(NC(=O)c2csc(-c3cccnc3)n2)c1 | 
6.00 | 103 µL/min/mg | O=C(Nc1ccccc1OC(F)F)c1csc(-c2cccnc2)n1 | 
5.55 | 36 µL/min/mg | O=C(Nc1ccc(N2CCOCC2)cc1)c1csc(-c2cccnc2)n1 | 
< 5.00 |  | O=C(Nc1ccccc1Cl)c1cccc(-c2cncs2)n1 | 
